Series [1] has as its target T1, purified aldose reductase isolated from bovine lenses (Bos taurus, UniProt P16116).
T1 construct: purified aldose reductase is isolated in known manner from bovine lenses; from tissue; host or cells: bovine lens
Nature of the series: in vitro inhibition of purified aldose reductase (reduction of glucose to sorbitol, spectrophotometric). Type of series: biochemical. The protocol: Thus, purified aldose reductase is isolated in known manner from bovine lenses. The percentage inhibition of these enzyme's ability in vitro to reduce aldoses to polyhydric alcohols, and particularly to reduce glucose to sorbitol, caused by a test compound is then determined using standard spectrophotometric methods. […] Thus, by way of illustration, 2-(2-fluoro-4-bromobenzyl)-1,2-dihydro-1-oxophthalazin-4-ylacetic acid has a Ki of 2.0×10^-8 M.

The next series deals with T2, aldose reductase (Rattus norvegicus, UniProt P07943).
T2 construct: the eye lenses and sciatic nerves are removed; from tissue; host or cells: rat sciatic nerve (and eye lens), enzyme acting in the living animal
The experiment in a line: streptozotocin diabetic rat test, residual sorbitol levels in tissues. Type of series: in vivo. Conditions: oral dosing at 10 mg./kg. for 5 days. The protocol: Thus, rats are made diabetic by dosing with streptozotocin and are then dosed daily with the test compound for 5 days. The animals are then killed and the eye lenses and sciatic nerves are removed. After a standard work-up procedure the residual sorbitol levels in each tissue are determined by gas liquid chromatography after conversion to the poly trimethylsilyl derivatives. Inhibition of aldose reductase in vivo is then assessed by comparing the residual sorbitol levels in tissues from the dosed diabetic group of rats with those of an undosed group of diabetic rats and an undosed, normal group of rats.
Alternatively, a modified test may be used in which the streptozotocin induced diabetic rats are dosed daily with test compound for two days. After 2-4 hours from the final dose the animals are killed and the sciatic nerves are removed and assessed for residual sorbitol levels as described above.
Active compounds in either of these tests reduce residual sorbitol levels to levels which are similar to those of normal, undosed rats. […] No overt toxic or other undesirable effects were detected with compounds of formula I at 100 mg./kg. in the above tests.

Series [2] concerns carageenin induced oedema. Type of series: in vivo, rats. Conditions: for overt toxicity: rat, in vivo; for inhibition of carageenin induced oedema: rats. How it is done: The compounds of the invention may therefore in addition be useful in the treatment of painful inflammatory joint diseases such as rheumatoid arthritis, osteoarthritis and ankylosing spondylitis. In this connection it is envisaged that they would be administered primarily orally at a daily dose in the range 10-50 mg./kg.

As to `O=C(O)Cc1nn(Cc2ccc(Br)cc2F)c(=O)c2ccccc12` [2-(2-fluoro-4-bromobenzyl)-1,2-dihydro-1-oxophthalazin-4-ylacetic acid], the inhibitory constant (Ki) in series [1] amounted to 20 nM. The “residual sorbitol level in the sciatic nerve, relative to control undosed diabetic rats” value at aldose reductase was “approximately 60%”. Further, in series [2], the overt toxicity result is reported as “without any sign of overt toxicity” and the “inhibition of carageenin induced oedema” value is “significant inhibition”.

On to `O=C(O)Cc1nn(Cc2ccc(Br)c(Cl)c2)c(=O)c2ccccc12` [2-(3-chloro-4-bromobenzyl)-1,2-dihydro-1-oxophthalazin-4-ylacetic acid], for which, in series [2], the overt toxicity entry was “without any sign of overt toxicity” and the “inhibition of carageenin induced oedema” value is given as “significant inhibition”.

For orientation: Ki means a dissociation constant, usually derived from enzyme kinetics or from competition with a known ligand. A lower Ki goes with tighter binding.
